This passage reports IC50 results from BindingDB's records for doi:10.1021/acs.jmedchem.9b00186 (Bristol-Myers Squibb Research & Development, 2019).

Assay [1] can be described thus: Antagonist activity at PAR4 in human platelet rich plasma assessed as inhibition of gamma-thrombin-induced platelet aggregation preincubated for 5 mins followed by gamma-thrombin addition and measured in presence of recombinant hirudin.
Assay [2] can be described thus: Antagonist activity at PAR4 in human washed platelets assessed as inhibition of gamma-thrombin-induced platelet aggregation preincubated for 5 mins followed by gamma-thrombin addition and measured every 50 secs for up to 15 mins starting from 10 secs post gamma-thrombin addition in presence of recombinant hirudin.

In the case of `COc1nn2cc(-c3cc4c(OC)ccc(OC)c4o3)nc2s1` [US9862730, Example 103], the IC50 in assay [1] is 10 µM; in assay [2], 2.1 µM.
For the compound `c1ccc2oc(-c3cn4nc(C5CC5)sc4n3)cc2c1` [US9862730, Example 63], the IC50 in assay [2] is greater than 30 µM.
Regarding `COc1cc(OCc2ccc(C(F)(F)F)cc2)c2cc(-c3cn4nc(OC)sc4n3)oc2c1`, the IC50 in assay [1] is 1.8 µM.
In the case of `COc1nn2cc(-c3cc4cccc(OC)c4o3)nc2s1` [US9862730, Example 9], the values for the IC50 in assay [1] and in assay [2] were 3.5 µM and 0.24 µM, respectively.
On to `COc1ccc(COc2cc(OC)cc3oc(-c4cn5nc(OC)sc5n4)cc23)cc1`, for which, in assay [1], the half-inhibitory concentration (IC50) was greater than 3 µM.
Turning to `COc1cc(OCc2ccccc2C)c2cc(-c3cn4nc(OC)sc4n3)oc2c1`, the half-maximal inhibitory concentration (IC50) in assay [1] stood at 3.6 µM.
Still for that read-out and setting: as for `COc1cc(OCCOCc2ccccc2)c2cc(-c3cn4nc(OC)sc4n3)oc2c1`, the figure is 0.5 µM.
Take `CCc1nn2cc(-c3cc4ccccc4o3)nc2s1` [US9862730, Example 47]: the IC50 in assay [2] was determined as 2.4 µM.
For the compound `COc1cc(OCCc2ccccc2)c2cc(-c3cn4nc(OC)sc4n3)oc2c1`, in assay [1], the IC50 stood at 0.78 µM.
On to `COc1cc(OCCOc2ccccc2)c2cc(-c3cn4nc(OC)sc4n3)oc2c1`, for which the IC50 in assay [1] was determined as 0.48 µM.
On the same count and under the same terms, as for `COc1cc(OCc2cccc(C(F)(F)F)c2)c2cc(-c3cn4nc(OC)sc4n3)oc2c1`, the figure is 0.44 µM.
In the case of `CNc1nn2cc(-c3cc4ccccc4o3)nc2s1` [US9862730, Example 69], the IC50 in assay [2] was greater than 30 µM.
As to `COc1cc(OCc2ccccc2OC)c2cc(-c3cn4nc(OC)sc4n3)oc2c1`, the IC50 in assay [1] was greater than 1 µM.
Still for that read-out and setting: as for `COc1cc(OCc2ccccc2C(F)(F)F)c2cc(-c3cn4nc(OC)sc4n3)oc2c1`, the figure is greater than 1 µM.
Still for that read-out and setting: then `COc1cc(OCc2cccc(Sc3ccccc3)c2)c2cc(-c3cn4nc(OC)sc4n3)oc2c1`, with 0.41 µM.
As to `COc1cc(OCc2cccc(Oc3ccccc3)c2)c2cc(-c3cn4nc(OC)sc4n3)oc2c1`, the IC50 in assay [1] amounted to 0.39 µM.
Same read-out and setting: as for `COc1cc(OCc2ccc(Cl)cc2)c2cc(-c3cn4nc(OC)sc4n3)oc2c1`, the figure is greater than 1 µM.
Regarding `Cc1nn2cc(-c3cc4ccccc4o3)nc2s1` [US9862730, Example 41], the IC50 in assay [2] is greater than 30 µM.
For `COc1cc(OCc2cccc(Cl)c2)c2cc(-c3cn4nc(OC)sc4n3)oc2c1`, the IC50 in assay [1] was 0.68 µM.
On to `COc1nn2cc(-c3cc4c(OCc5ccccc5)cccc4o3)nc2s1` [US9862730, Example 210], for which the IC50 was 4.1 µM in assay [1] and 3.1 µM in assay [2].
Take `COc1nn2cc(-c3cc4ccccc4o3)nc2s1`: the IC50 in assay [1] stood at 15 µM; in assay [2], 0.24 µM.
On to `COc1cccc(COc2cc(OC)cc3oc(-c4cn5nc(OC)sc5n4)cc23)c1`, for which the IC50 in assay [1] was greater than 1 µM.
Same read-out and setting: as for `COc1cc(OCc2cccc(C#N)c2)c2cc(-c3cn4nc(OC)sc4n3)oc2c1`, the figure is 0.82 µM; as for `COc1cc(OCc2ccccc2OCc2ccccc2)c2cc(-c3cn4nc(OC)sc4n3)oc2c1`, 2.5 µM.
In the case of `COc1ccc2oc(-c3cn4nc(OC)sc4n3)cc2c1` [US9862730, Example 93], the IC50 in assay [1] and in assay [2] was greater than 30 µM each time.
In the case of `COc1nn2cc(-c3cc4ccc(OCc5ccccc5)cc4o3)nc2s1` [US9862730, Example 104], the results for the IC50 in assay [1] and in assay [2] were greater than 30 µM and 1.8 µM, respectively.
For the compound `COc1cc(OCc2cccc(O)c2)c2cc(-c3cn4nc(OC)sc4n3)oc2c1`, the IC50 in assay [1] worked out at 2.7 µM.
On to `COc1cc(OCc2ccc(OCc3ccccc3)cc2)c2cc(-c3cn4nc(OC)sc4n3)oc2c1`, for which, in assay [1], the IC50 worked out at 0.55 µM.
In the case of `COc1ccc2cc(-c3cn4nc(OC)sc4n3)oc2c1` [US9862730, Example 71], the figures for the IC50 in assay [1] and in assay [2] were 0.48 µM and 0.12 µM, respectively.
The matching figures for `COc1cc(OC)c2cc(-c3cn4nc(OC)sc4n3)oc2c1` [US9862730, Example 73]: 0.53 µM and 0.074 µM.
For `COc1cc(OCc2ccccc2Cl)c2cc(-c3cn4nc(OC)sc4n3)oc2c1`, the IC50 in assay [1] is greater than 3 µM.
Same read-out and setting: then `COc1cc(OCc2cccc(CO)c2)c2cc(-c3cn4nc(OC)sc4n3)oc2c1`, with greater than 1 µM; and `COc1cc(OCc2cccc(CCc3ccccc3)c2)c2cc(-c3cn4nc(OC)sc4n3)oc2c1`, with 1.2 µM.
Take `COc1nn2cc(-c3cc4c(OC)cccc4o3)nc2s1` [US9862730, Example 11]: the IC50 is 1.3 µM in assay [1] and 0.35 µM in assay [2].
For the compound `CSc1nn2cc(-c3cc4ccccc4o3)nc2s1` [US9862730, Example 1], in assay [2], the IC50 came out at 0.27 µM.
Same read-out and setting: then `CC(C)Oc1nn2cc(-c3cc4ccccc4o3)nc2s1`, with greater than 30 µM; and `CCOc1nn2cc(-c3cc4ccccc4o3)nc2s1`, with 2.1 µM.
Still for that read-out and setting: as for `CS(=O)(=O)c1nn2cc(-c3cc4ccccc4o3)nc2s1`, the figure is greater than 30 µM.
Regarding `COc1cc(OCc2cccc(COc3ccccc3)c2)c2cc(-c3cn4nc(OC)sc4n3)oc2c1`, the IC50 in assay [1] worked out at 0.6 µM.
`COc1nn2cc(-c3cc4ccc(OC)c(OC)c4o3)nc2s1` [US9862730, Example 10]: the IC50 in assay [1] and in assay [2] was greater than 30 µM in each case.

As usually defined, the IC50 is the concentration at which inhibition is half-maximal.
